Values of other authors, collected in patent US7879906B2, “GABA analogs, compositions and methods for manufacturing thereof” (Anchen Laboratories, Inc., priority 2006, dated 2011).

System: mouse

SMILES | toxicity (LD50, mouse)
NCC1(CC(=O)O)CCCCC1 [gabapentin] | more than 8000 mg/kg
O=C1CC2(CCCCC2)CN1 [gabapentin lactam] | 300 mg/kg
